The target in data set [1] is T1, high-affinity state of dopamine D2 receptors (Rattus norvegicus, UniProt P61169).
T1 construct: from tissue; host or cells: rat striatum, homogenized
As to the kind of experiment: Biological potency on the high-affinity state of dopamine D2 receptors in rat homogenized striatal tissue. In kind it is binding. The conditions noted are these: [3H]-domperidone. From the text:
(§1) It is herein submitted that the short-term use of tracer doses of a compound of the invention, wherein R^1 is C1-6alkyl in which one hydrogen atom on the alkyl chain in replaced with radioactive fluoro, in radioimaging procedures will be of diagnostic and therapeutic importance in dopamine-related disorders.

For data set [2], the target named is T2, rat cloned D3 receptor (Rattus norvegicus, UniProt P19020).
T2 construct: expressed in transfected cells
As to the kind of experiment: Binding to rat cloned D3 receptor using 1.6 nM [3H]-raclopride.
Text: as §1

Data set [3] concerns the target D2^High receptors (Homo sapiens, UniProt P14416). The conditions noted are these: human volunteer, PET.
Description: After a brief transmission scan for attenuation correction of the emission scans, emission scans are obtained every minute for the first 15 min, and then every 5 min until the end of the study at 75 min. The PET scanning is conducted by using a dedicated brain scanner, GEMS PC2048-15B PET camera (General Electric Medical Systems) that produces fifteen 6.5 mm-thick slices with a resolution of 5-6 mm. The volunteer is scanned lying down and the head fixed by using a thermoplastic face mask. For accurate anatomical position of the various brain regions, each volunteer receives an MRI (magnetic resonance imaging) scan. The regions of interest are transferred to the PET images by using Alice™ 3.1 software.
The regions of interest include the head of the caudate nucleus. […] Several hours after the initial injection of (+)-[^18F]-PHNO, a second injection of (+)-[^18F]-PHNO is given intravenously at the same time as a very low dose of non-radioactive (+)PHNO, (+)-F-PHNO or a very low dose of apomorphine. […] The density of the D2^High sites in the caudate nucleus that are labeled by (+)-[^18F]-PHNO is calculated, knowing the specific activity of the tracer injected and the amount of radioactivity detected by the positron imaging camera.
The conditions of data set [4]: in vivo; cited from earlier work.

Here are results for eight compounds from patent US20070155736A1, “FLUORINATED PHNO AND ANALOGUES THEREOF” (Clara Inc., priority 2005, published 2007).

Structures can show the parent of a compound that is named as a salt.

T1 sequence (P61169 whole entry): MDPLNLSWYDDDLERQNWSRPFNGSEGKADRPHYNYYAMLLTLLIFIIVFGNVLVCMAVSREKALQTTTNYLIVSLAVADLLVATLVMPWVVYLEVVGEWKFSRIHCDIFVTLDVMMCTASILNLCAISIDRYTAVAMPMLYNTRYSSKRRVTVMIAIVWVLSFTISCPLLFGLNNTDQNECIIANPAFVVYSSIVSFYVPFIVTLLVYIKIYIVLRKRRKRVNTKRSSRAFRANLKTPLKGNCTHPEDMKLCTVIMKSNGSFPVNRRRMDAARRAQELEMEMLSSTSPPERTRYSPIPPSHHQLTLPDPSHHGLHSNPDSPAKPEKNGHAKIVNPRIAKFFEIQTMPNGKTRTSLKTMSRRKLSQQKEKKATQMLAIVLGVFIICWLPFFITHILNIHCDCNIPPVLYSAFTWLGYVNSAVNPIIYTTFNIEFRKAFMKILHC
T2 sequence (P19020 whole entry): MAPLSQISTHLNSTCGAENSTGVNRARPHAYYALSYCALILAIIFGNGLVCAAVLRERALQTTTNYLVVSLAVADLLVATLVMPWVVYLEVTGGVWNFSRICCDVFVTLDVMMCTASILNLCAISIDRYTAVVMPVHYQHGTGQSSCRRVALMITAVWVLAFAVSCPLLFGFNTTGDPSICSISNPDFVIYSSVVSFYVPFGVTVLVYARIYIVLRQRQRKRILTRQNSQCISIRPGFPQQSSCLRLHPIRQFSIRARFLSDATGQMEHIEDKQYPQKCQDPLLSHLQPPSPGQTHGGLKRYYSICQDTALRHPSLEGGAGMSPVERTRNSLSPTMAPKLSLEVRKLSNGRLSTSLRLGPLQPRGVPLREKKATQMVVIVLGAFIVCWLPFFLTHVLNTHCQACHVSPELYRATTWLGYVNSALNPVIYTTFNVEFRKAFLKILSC
Sequence of D2^High receptors (P14416 whole entry): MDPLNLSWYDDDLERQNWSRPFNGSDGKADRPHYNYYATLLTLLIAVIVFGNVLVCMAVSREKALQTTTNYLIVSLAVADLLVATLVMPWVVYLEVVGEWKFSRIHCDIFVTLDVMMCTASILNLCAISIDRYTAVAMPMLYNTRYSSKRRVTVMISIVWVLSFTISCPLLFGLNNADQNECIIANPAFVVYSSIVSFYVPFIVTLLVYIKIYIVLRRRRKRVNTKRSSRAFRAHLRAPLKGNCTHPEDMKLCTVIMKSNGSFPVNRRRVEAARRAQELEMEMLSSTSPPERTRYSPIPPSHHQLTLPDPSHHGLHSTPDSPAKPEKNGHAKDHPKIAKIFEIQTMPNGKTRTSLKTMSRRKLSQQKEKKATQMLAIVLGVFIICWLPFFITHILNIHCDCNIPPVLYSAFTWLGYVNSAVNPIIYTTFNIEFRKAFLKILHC

For orientation: melting point means the temperature of the solid-liquid transition. In turn, `Oc1ccc2c(c1)[C@H]1OCCN(CCCF)[C@@H]1CC2` (as salt: hydrochloride) [(+)-F-PHNO, (4aR,10bR)-4-(3-Fluoropropyl)-3,4,4a,5,6,10b-hexahydro-2H-naphtho[1,2-b][1,4]oxazin-9-ol Hydrochloride] came in with a melting point of 253 to 255 °C. In general, Kd refers to the free concentration of one partner at which half of the binding sites on the other are occupied at equilibrium, for simple one-to-one binding. Lower therefore signals tighter binding. In the case of `Oc1ccc2c(c1)[C@H]1OCCN(CCCCF)[C@@H]1CC2` [(+)-F-But-HNO, (4aR,10bR)-4-(4-Fluorobutyl)-3,4,4a,5,6,10b-hexahydro-2H-naphtho[1,2-b][1,4]oxazin-9-ol Hydrochloride], the Kd in data set [1] came to 20 ± 8.7 nM; in data set [2], 34 nM. Turning to `Oc1ccc2c(c1)[C@H]1OCCN(CCF)[C@@H]1CC2` [(+)-F-EHNO, (4aR,10bR)-4-(2-Fluoroethyl)-3,4,4a,5,6,10b-hexahydro-2H-naphtho[1,2-b][1,4]oxazin-9-ol Hydrochloride], the Kd in data set [1] was 1.7 ± 0.3 nM; in data set [2] it was 1.7 nM.

As for `Oc1ccc2c(c1)[C@H]1OCCN(CCCCCCF)[C@@H]1CC2` [(+)-F-Hex-HNO, (4aR,10bR)-4-(6-Fluorohexyl)-3,4,4a,5,6,10b-hexahydro-2H-naphtho[1,2-b][1,4]oxazin-9-ol Hydrochloride], the Kd is 52 ± 27 nM in data set [1] and 45 nM in data set [2].

Consider `Oc1ccc2c(c1)[C@H]1OCCN(CCCF)[C@@H]1CC2` [(+)-F-PHNO, (4aR,10bR)-4-(3-Fluoropropyl)-3,4,4a,5,6,10b-hexahydro-2H-naphtho[1,2-b][1,4]oxazin-9-ol Hydrochloride], for which the results for the Kd in data set [1] and in data set [2] were 0.46 ± 0.06 nM and 0.38 nM, respectively. The matching figures for `Oc1ccc2c(c1)[C@H]1OCCN(CCCCCF)[C@@H]1CC2` [(+)-F-Pent-HNO, (4aR,10bR)-4-(5-Fluoropentyl)-3,4,4a,5,6,10b-hexahydro-2H-naphtho[1,2-b][1,4]oxazin-9-ol Hydrochloride]: 25 ± 4 nM and 54 nM. For `Oc1ccc2c(c1)[C@H]1OCCN(CCC[18F])[C@@H]1CC2` [(+)-[^18F]-PHNO, [^18F]-(4aR,10bR)-4-(3-fluoropropyl)-3,4,4a,5,6,10b-hexahydro-2H-naphtho[1,2-b][1,4]oxazin-9-ol], in data set [3] (at 10 minutes after i.v. injection), the “peak emission in the caudate nucleus” value was “about 0.22 % of the injected dose per kg”. Moreover, the “time of peak emission in the caudate nucleus after intravenous injection” value in data set [3] (bolus plus infusion i.v.) was 10 min.

For the compound `CCCN1CCO[C@@H]2c3cc(O)ccc3CC[C@H]21.Cl` [(+)PHNO, (+)-(4aR,10bR)-3,4,4a,5,6,10b-hexahydro-4-propyl-2H-naphth[1,2-b][1,4]oxazin-9-ol HCl], in data set [4], the “effect in Parkinson's disease” value is recorded as “effective in alleviating Parkinson's disease”.
